US10202366B2, “Methods of promoting wound healing using CRM1 inhibitors” (Karyopharm Therapeutics Inc., priority 2013, dated 2019)
pIC50: −log10 of the molar value.

Tested on: MM1.S cells
Test: MTT cell proliferation assay
Format: cell-based
Conditions: Homo sapiens
Method: The MTT cell proliferation assay was used to study the cytotoxic properties of certain compounds. The assay was performed according to the method described by Roche Molecular Biochemicals, with minor modifications. The assay is based on the cleavage of the tetrazolium salt, MTT, in the presence of an electron-coupling reagent. The water-insoluble formazan salt produced must be solubilized in an additional step. Cells grown in a 96-well tissue culture plate were incubated with the MTT solution for approximately 4 hours. After this incubation period, a water-insoluble formazan dye formed. After solubilization, the formazan dye was quantitated using a scanning multi-well spectrophotometer (ELISA reader). […] The cells were seeded at 5,000-10,000 cells in each well of 96-well plate in 100 μL of fresh culture medium and were allowed to attach overnight. The stock solutions of the compounds were diluted in 100 μL cell culture medium to obtain eight concentrations of each test compound, ranging from 1 nM to 30 μM. […] All optical densities were measured at 490 nm using a Vmax Kinetic Microplate Reader (Molecular Devices). In most cases, the assay was performed in duplicate and the results were presented as a mean percent inhibition to the negative control±SE. The following formula was used to calculate the percent of inhibition: Inhibition (%)=(1−(ODo/OD))×100. […]

pIC50 | Compound
8.40 | CC(C)Oc1cc(-c2ncn(/C=C\C(=O)OCc3cnccn3)n2)cc(C(F)(F)F)c1 [Compound 130, Pyrazin-2-Ylmethyl (Z)-3-(3-(3-Isopropdxy-5-(Trifluoromethyl)Phenyl)-1h-1,2,4-Triazol-1-Yl)Acrylate]
7.70 | CC(C)Oc1cc(-c2ncn(/C=C\C(=O)OCc3cncnc3)n2)cc(C(F)(F)F)c1 [Compound 129, Pyrimidin-5-Ylmethyl (Z)-3-(3-(3-Isopropoxy-5-(Trifluoromethyl)Phenyl)-1H-1,2,4-Triazol-1-Yl)Acrylate]
